In patent US11712483B2, “Activatable membrane-interacting peptides and methods of use” (priority 2013, dated 2023):
“Also recorded” adds a separate entry of the source. Where no end group is shown, it is not given here. Cy3 = cyanine3 fluorescent dye; Cy5 = cyanine5 fluorescent dye

What was measured:
[1] = test system: enteropeptidase or thrombin activity; experiment: Fluorescence imaging in a subject, promolecule activated by either of two enzymes; format: in vivo; details: administered to a subject
Experimental: In order to activate this promolecule, either X^2a or X^2b must be cleaved, so that this promolecule is activated by either thrombin or enteropeptidase activity. The molecule is administered to a subject, and is cleaved in areas having enteropeptidase or thrombin activity, causing portion A to separate from portion Z and interact with membranes in the vicinity.

[2] = test system: blood clots formed in vitro; experiment: Blood clots formed on glass slides; parameters: species or system bovine; details: for accumulation on actively clotting platelets / localization to blood clots: clots on glass slides, fluorescence microscopy; for accumulation on red blood cells: without activation
Experimental: Whole bovine blood was mixed at a ratio of 5:1 with a 10 nM solution of promolecules bearing the fluorescent dye Cy5. The mixture was then added to 1 uL of activated coagulation factor Xa (10 nM) and calcium chloride (10 mM) to initiate clot formation on the surface of a conventional microscopy slide. The mixture was then stirred with the tip of a plastic pipette for four minutes until a clot was formed. The clot was then pulled gently across the slide with the goal of flattening out the clot for better imaging. A coverslip was then placed on top of the slide and held in place by dabbing the corners with adhesive. The slide was then imaged within a few hours using an epifluorescence microscope (Nikon Eclipse Ti-E) bearing the appropriate filters for detection of the Cy5 dye.

[3] = in vivo
Experimental: In order to extend the circulating half-life of the promolecule, it is covalently linked to a molecule of polyethylene glycol (PEG) having a moleculer weight of 1,000 Daltons. The PEG-modified promolecule is administered to a subject and the circulating half-life is measured.

matriptase = molecular target: T1, matriptase (Homo sapiens, UniProt Q9Y5Y6); experiment: Selective activation in MDA-MB-231 cells, trypan blue, matriptase; format: cell-based; details: exogenous addition of different proteases
T1 sequence (Q9Y5Y6 615-855 limits assumed): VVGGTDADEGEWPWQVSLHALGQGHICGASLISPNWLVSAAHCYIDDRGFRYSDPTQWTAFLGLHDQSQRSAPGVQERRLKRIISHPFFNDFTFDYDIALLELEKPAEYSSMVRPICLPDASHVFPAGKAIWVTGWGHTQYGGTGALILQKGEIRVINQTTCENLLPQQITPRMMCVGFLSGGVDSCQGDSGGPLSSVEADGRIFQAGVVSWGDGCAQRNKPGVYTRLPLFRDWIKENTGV
Experimental: (§1) To examine the interaction of the promolecule and its activated form with cell membranes rather than artificial membranes, the promolecules were incubated with cells of the breast cancer cell line MDA-MB-231 (approximately 100,000 cells in a volume of […]) for 1 hour at 37° C. in Dulbecco's modified Eagle medium containing 1% fetal bovine serum, and cell viability was assessed using Trypan blue dye exclusion.
(§2) Cy5 fluorescent dye was conjugated to this promolecule via an N-terminal thiol (module X^1a) to create a promolecule having the structure X^1a-A-X^2—Z, and its interaction with HT29 cells was analyzed using fluorescence microscopy. In this experiment, cells were grown to confluence on glass bottom microwell dishes and the peptide (10 uM) incubated with the cells for between one to three hours and then washed for staining with fluorescently-labeled wheat germ agglutinin. After such staining the cells were covered in typical cell culture media and allowed to grow overnight for another round of imaging.

MDA-MB-231 cells = experiment: Trypan blue dye exclusion, MDA-MB-231 cells; format: cell-based; details: 1 hour, 37° C.
Experimental: as §1

HT29 cells = experiment: Fluorescence microscopy of HT29 cells; format: cell-based
Experimental: as §2

[4] = Intrinsic tryptophan fluorescence with liposomes or detergent micelles; format: binding
From the text: Intrinsic fluorescence was used to characterize promolecules containing one or more tryptophan residues in portion A. As the spectral properties of tryptophan are dependent upon its local environment, this provides unequivocal definition of its partitioning into phospholipid membranes. In aqueous conditions, tryptophan typically emits light near 355 nm when excited with 285 nm light. In contrast, the emitted light is […] or lowered when the tryptophan of the peptide is present in an apolar environment, such as the interior of a phospholipid membrane, and produces a maximum emission wavelength typically in the range of 325 to 345 nm. Both the magnitude and wavelength of light emitted under this fluorescence assay are influenced by the properties of the peptide and the composition of the phospholipid membrane. […] A typical assay employed an 8 μM solution of promolecules and liposomes of defined size (100 nm in diameter, 0.5 mM) composed of phosphatidylserine or phosphatidylcholine or a combination thereof to test the influence of negatively charged or zwitterionic surfaces. […] Time-dependent measurement of the fluorescence emission spectra was used to characterize the activation of the promolecules by thrombin (2 nM) or by other proteases (10 nM or higher).

thrombin = thrombin (Homo sapiens, UniProt P00734); experiment: Thrombin-mediated proteolysis by reverse phase HPLC; format: biochemical; details: digestion by thrombin, Michaelis-Menten
Experimental: Thrombin-mediated proteolysis of promolecules was performed by incubating the enzyme at concentrations ranging from 0.1 to 2 nM with a 20 to 100 μM solution of the promolecule at 37° C. for up to three or a full twenty-four hours to ensure completeness. The extent of proteolysis was assessed by reverse phase high-pressure liquid chromatography. Samples were run over a C18 column using an acetonitrile gradient of 20% to 80% over a period of 30 minutes. Complete hydrolysis was evident by the absence of the initial peak corresponding to the promolecule, and was further validated using mass spectrometry.

[5] = Förster resonance energy transfer (FRET) to fluorescent liposomes; format: binding; details: 100 nm liposomes, entirely PS
Experimental: Förster resonance energy transfer (FRET) relies upon the ability of light to be exchanged from one fluorescent moiety to another, which becomes possible only when the moieties are in close proximity to one another, typically less than about 30 Angstroms. Liposomes having similar composition to that used in the intrinsic fluorescence assays were prepared with 1% DiO, a lipid-soluble fluorescent compound whose fluorescence emission characteristics match the excitation wavelength of the promolecule when conjugated to […]. DiO-containing liposomes (1 μM) were mixed with Cy5 containing promolecules or activated peptide portions (20 nM), and the spectral characteristics of the mixture were determined. Cy3 was excited with 545 nm light, and the emission of Cy5 was measured over 650 to 700 nm. The activated peptide portions, but not the promolecules, enabled fluorescence energy transfer, which confirmed the observations made using intrinsic fluorescence.

[6] = test system: mouse pancreatic duct carcinoma cells; experiment: DRAQ7 exclusion, mouse pancreatic duct adenocarcinoma cells; format: cell-based; details: prolonged incubation, high micromolar concentrations, FIGS. 10 and 11
Experimental: DRAQ7 is a far-red fluorescent DNA dye that stains the nuclei of dead and permeabilized cells. Unlike trypan blue, it can be combined with other commonly used fluorophores, such as Oregon Green 488 and Cy5. Healthy cells exclude the dye, and no increase in fluorescence is observed. […] When complexed with double stranded DNA, the dye has a maximum excitation wavelength of 643 nm and a maximum emission wavelength of 694 nm. Cells incubated with the promolecule or the activated peptide form of the promolecule in the presence or absence of thrombin (5 nM) were exposed to DRAQ7 (3 μM) for at least 10 minutes and then imaged using two different approaches. In the first approach, the cells were mouse pancreatic duct adenocarcinoma cells, the incubation buffer contained wheat germ agglutinin conjugated with Oregon Green 488, and the cells were visualized with a Nikon Eclipse Ti-E bearing the appropriate filters. In the second approach, mouse X3 fibroblast cells bearing a modified Histone 2A gene fused to green fluorescent protein (GFP) were imaged using an Acumen Ex3—a commercially available confocal microscopy instrument specifically designed for high throughput, content rich and highly multiplexed data applicable to a wide range of biological assays.

(Cy5)CFFWLSKIFPRDDDDKDD (Cy5-CFFWLSKIFPRDDDDKDD) [SEQ ID NO: 53]
detection of Cy5 dye by fluorescence microscopy [1]: the Cy5 dye is detected in areas having enteropeptidase or thrombin activity

Cy5-CFVQWFSKFLGKLLPRSFLLQDPNDQYEPFW [SEQ ID NO: 52]
accumulation on actively clotting platelets / localization to blood clots [2]: intense accumulation of the activated peptide form of the promolecule; also recorded: localization of the membrane-interacting peptide-containing cleavage product to blood clots | accumulation on red blood cells [2]: did not accumulate on red blood cells

PEG-modified promolecule: SEQ ID NO: 52 covalently linked to polyethylene glycol of 1,000 Daltons (CFVQWFSKFLGKLLPRSFLLQDPNDQYEPFW; not fully specified (residue 1, N-terminus); printed as Cy5-CFVQWFSKFLGKLLPRSFLLQDPNDQYEPFW; also: PEG 1000 Da attached, site not given here)
circulating half-life versus non-PEG-modified form [3]: longer circulating half-life than the non-PEG-modified form

(Cy5)FVQWFSKFLGKLLKSRAEDEGLYDDD (Cy5-FVQWFSKFLGKLLKSRAEDEGLYDDD; not fully specified; printed as (Cy5)FVQWFSKFLGKLLKSRAEDEGLYDDD) [SEQ ID NO: 49, matriptase-cleavable promolecule; tested as A-X^2—Z and with Cy5 via N-terminal thiol]
activation by matriptase (diminished trypan blue dye exclusion) (matriptase): selectively activated by matriptase | toxicity / cell death, trypan blue dye uptake (MDA-MB-231 cells): Limited toxicity; also recorded: low toxicity; also recorded: did not | fluorescent signal on cell surface (HT29 cells; Cy5-conjugated promolecule, after co-incubation): accumulated on the surface of the HT29 cells; also recorded: detectable on the surface of cells | internalization into cells (HT29 cells; after washing and further incubation (24 hours)): internalized into the cells; also recorded: localized in punctate spheres inside the cells | maximum emission wavelength / spectral properties, intrinsic tryptophan fluorescence ([4]; in presence of PC or PS liposomes or detergent micelles compared to buffer alone (PBS)): undergo a limited change | interaction with phospholipid membranes, intrinsic fluorescence ([4]; promolecule A-X^2—Z before activation): moderate restricted interaction with phospholipid membranes

(Cy3-K)ILGTILGLLKGLPRSFLLRNPNDKYEPFW (Cy3-KILGTILGLLKGLPRSFLLRNPNDKYEPFW; also: Cy3 conjugated to N-terminal Lys, attachment site not given here) [SEQ ID NO: 48, thrombin-cleavable promolecule with protonectin as portion A, Cy3 on N-terminal lysine]
Km (thrombin): 0.2 µM | accumulation on actively clotting platelets / localization to blood clots [2]: intense accumulation of the active form of the promolecule; also recorded: localization of membrane-interacting peptide-containing cleavage products in blood clots | accumulation on red blood cells [2]: did not accumulate on red blood cells | FRET to DiO liposomes composed of phosphatidylserine (PS) [5]: do not associate closely enough with the PS liposomes to enable FRET

FVQWFSKFLGKLLPRSFLLQDPNDQYEPFW [SEQ ID NO: 47]
peptide-to-cell ratio at which cells did not exclude trypan blue or DRAQ7 (no longer viable) [6]: greater than 10^9 to one
